Data taken from paper PMC10318822, “Phase 1 dose-escalation study to evaluate the safety, tolerability, pharmacokinetics, and anti-tumor activity of FCN-159 in adults with neurofibromatosis type 1-related unresectable plexiform neurofibromas” (BMC Medicine, 2023).
Entries after “also recorded” stand apart in the source; their conditions may differ.

System: NF1-related PN
Experiment: Tumor response by MRI volumetric analysis (Response Evaluation in Neurofibromatosis Schwannomatosis criteria)
Type: in vivo, human
Details: for Best overall response: Complete response / Best overall response: Disease progression / Best overall response: Not evaluable / Best overall response: Partial response / Best overall response: Stable disease: Investigator assessments
From the text: Primary endpoints of the study were the DLT incidence rate, MTD, and RP2D. Secondary endpoints included other safety assessments, imaging tumor response (complete response [CR], PR, stable disease [SD], or progressive disease [PD]), and PK parameters of FCN-159. Adverse events were graded per CTCAE v5.0.
All patients underwent a complete medical history, physical examination, Eastern Cooperative Oncology Group (ECOG) assessment, and laboratory analysis of test results. Drug-related TEAEs, serious adverse events (SAEs), TEAEs of grade ≥ 3 toxicity, and TEAEs leading to drug discontinuation were reviewed on an ongoing basis. Efficacy was assessed by radiologic scans and clinical assessment. Tumor assessments per Response Evaluation in Neurofibromatosis Schwannomatosis criteria were performed by investigators using MRI volumetric analysis every 4 cycles within the first 2 years (± 7 days) and every 6 cycles after 2 years (± 14 days) until PD, death, patient's voluntary withdrawal from study treatment, or study termination. MRI sequences of […], T1- and T2-weighted sequences were chosen and the software of Extended Brilliance Workspace, SIGNA Premier and uExceed were used for MRI volumetric analysis. The same software was used for all tumor assessments at baseline and subsequent assessed timepoints of the same patient. Pain was assessed by an 11-point numerical rating scale (NRS-11).

Cn1c(=O)c(F)c(Nc2ccc(I)cc2F)c2c(=O)n(C3CC3)nc(-c3cccc(NS(=O)(=O)C4CC4)c3)c21 [FCN-159]
Best overall response: Complete response (4 mg (n = 3)): 0 n (%) | Best overall response: Disease progression (4 mg (n = 3)): 0 n (%) | Best overall response: Not evaluable (4 mg (n = 3)): 0 n (%) | Best overall response: Partial response (4 mg (n = 3)): 1 (33.3) n (%) | Best overall response: Stable disease (4 mg (n = 3)): 2 (66.7) n (%) | Best overall response: Complete response (6 mg (n = 4)): 0 n (%) | Best overall response: Disease progression (6 mg (n = 4)): 0 n (%) | Best overall response: Not evaluable (6 mg (n = 4)): 0 n (%) | Best overall response: Partial response (6 mg (n = 4)): 2 (50.0) n (%) | Best overall response: Stable disease (6 mg (n = 4)): 2 (50.0) n (%) | Best overall response: Complete response (8 mg (n = 5)): 0 n (%) | Best overall response: Disease progression (8 mg (n = 5)): 0 n (%) | Best overall response: Not evaluable (8 mg (n = 5)): 0 n (%) | Best overall response: Partial response (8 mg (n = 5)): 2 (40.0) n (%) | Best overall response: Stable disease (8 mg (n = 5)): 3 (60.0) n (%) | Best overall response: Complete response (12 mg (n = 4)): 0 n (%) | Best overall response: Disease progression (12 mg (n = 4)): 0 n (%) | Best overall response: Not evaluable (12 mg (n = 4)): 0 n (%) | Best overall response: Partial response (12 mg (n = 4)): 1 (25.0) n (%) | Best overall response: Stable disease (12 mg (n = 4)): 3 (75.0) n (%) | Patients with progressive disease (PD) (16 evaluable patients): none experienced PD; also recorded: zero patients had PD | Patients with reduced tumor volume (16 patients with at least one post-baseline tumor assessment): 100% | Best overall response: Complete response (Total (n = 16)): 0 n (%) | Best overall response: Disease progression (Total (n = 16)): 0 n (%) | Best overall response: Not evaluable (Total (n = 16)): 0 n (%) | Best overall response: Partial response (Total (n = 16)): 6 (37.5) n (%) | Best overall response: Stable disease (Total (n = 16)): 10 (62.5) n (%) | Largest reduction in tumor volume (in vivo): 84.2% | Patients achieving partial responses (six of 16 evaluable patients): 37.5%
